In ChEMBL document CHEMBL1201862, “PubChem BioAssay data set” (2004):
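A five-concentration, 48-hour dose response in 96-well plates underlies each endpoint, interpolated linearly between surrounding concentrations. GI50 is the concentration that inhibits growth by half.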 Activity calls are given as the source filed them. No stated cut-off is given here; in the data, active = GI50 up to about 1.1 µM and inactive = higher.

What was measured:
Assay in all cases: NCI tumour cell line growth inhibition, 48 h
[1] = test system: IGROV-1
[2] = test system: OVCAR-3
[3] = test system: RPMI-8226
[4] = test system: Hs-578T
[5] = test system: NCI-H226
[6] = test system: SR
[7] = test system: DU-145
[8] = test system: MDA-MB-231
[9] = test system: BT-549
[10] = test system: SN12C
[11] = test system: NCI/ADR-RES
[12] = test system: UACC-257
[13] = test system: NCI-H23
[14] = test system: ACHN
[15] = test system: SNB-19
[16] = test system: A498
[17] = test system: HOP-62
[18] = test system: SF-295
[19] = test system: TK-10
[20] = test system: SK-MEL-5
[21] = test system: LOX IMVI
[22] = test system: CCRF-CEM
[23] = test system: RXF 393
[24] = test system: UO-31
[25] = test system: SK-OV-3
[26] = test system: UACC-62
[27] = test system: MDA-MB-435
[28] = test system: NCI-H522
[29] = test system: HCC 2998
[30] = test system: PC-3
[31] = test system: OVCAR-4
[32] = test system: MOLT-4
[33] = test system: K562
[34] = test system: HCT-15
[35] = test system: U-251
[36] = test system: SK-MEL-28
[37] = test system: OVCAR-5
[38] = test system: 786-0
[39] = test system: T47D
[40] = test system: Malme-3M
[41] = test system: OVCAR-8
[42] = test system: SF-268
[43] = test system: A549
[44] = test system: NCI-H460
[45] = test system: HCT-116
[46] = test system: EKVX
[47] = test system: CAKI-1
[48] = test system: SW-620
[49] = test system: KM12
[50] = test system: SF-539
[51] = test system: HL-60
[52] = test system: MDA-N
[53] = test system: HT-29
[54] = test system: COLO 205
[55] = test system: M14
[56] = test system: SNB-75
[57] = test system: SK-MEL-2
[58] = test system: HOP-92
[59] = test system: MCF7

COc1cc2c(cc1OC)C(=O)C1(C2)[C@H](c2ccccc2)C2C(=O)c3cc(OC)c(OC)cc3C2[C@H]1c1ccccc1 (some centres undefined)
GI50 [1]: > 100 µM (inactive) | GI50 [2]: > 100 µM (inactive) | GI50 [3]: > 100 µM (inactive) | GI50 [4]: > 100 µM (inactive) | GI50 [5]: > 100 µM (inactive) | GI50 [6]: > 100 µM (inactive) | GI50 [7]: > 100 µM (inactive) | GI50 [8]: > 100 µM (inactive) | GI50 [9]: > 100 µM (inactive) | GI50 [10]: > 100 µM (inactive) | GI50 [11]: > 100 µM (inactive) | GI50 [12]: > 100 µM (inactive) | GI50 [13]: > 100 µM (inactive) | GI50 [14]: 25.8 µM (inactive) | GI50 [15]: > 100 µM (inactive) | GI50 [16]: > 100 µM (inactive) | GI50 [17]: > 100 µM (inactive) | GI50 [18]: > 100 µM (inactive) | GI50 [19]: > 100 µM (inactive) | GI50 [20]: > 100 µM (inactive) | GI50 [21]: > 100 µM (inactive) | GI50 [22]: > 100 µM (inactive) | GI50 [23]: 63.5 µM (inactive) | GI50 [24]: > 100 µM (inactive) | GI50 [25]: > 100 µM (inactive) | GI50 [26]: > 100 µM (inactive) | GI50 [27]: > 100 µM (inactive) | GI50 [28]: > 100 µM (inactive) | GI50 [29]: > 100 µM (inactive) | GI50 [30]: > 100 µM (inactive) | GI50 [31]: > 100 µM (inactive) | GI50 [32]: > 100 µM (inactive) | GI50 [33]: > 100 µM (inactive) | GI50 [34]: > 100 µM | GI50 [35]: > 100 µM (inactive) | GI50 [36]: > 100 µM (inactive) | GI50 [37]: > 100 µM (inactive) | GI50 [38]: > 100 µM (inactive) | GI50 [39]: 10.5 µM (inactive) | GI50 [40]: > 100 µM (inactive) | GI50 [41]: > 100 µM (inactive) | GI50 [42]: > 100 µM (inactive) | GI50 [43]: 31 µM (inactive) | GI50 [44]: 49.1 µM (inactive) | GI50 [45]: > 100 µM (inactive) | GI50 [46]: > 100 µM (inactive) | GI50 [47]: 0.259 µM (active) | GI50 [48]: > 100 µM (inactive) | GI50 [49]: > 100 µM (inactive) | GI50 [50]: > 100 µM (inactive) | GI50 [51]: > 100 µM (inactive) | GI50 [52]: > 100 µM (inactive) | GI50 [53]: > 100 µM (inactive) | GI50 [54]: > 100 µM (inactive) | GI50 [55]: > 100 µM (inactive) | GI50 [56]: 24.8 µM (inactive)

N=c1oc2ccccc2cc1C(=O)Nc1ccccn1
GI50 [1]: 51.9 µM (inactive) | GI50 [2]: > 100 µM (inactive) | GI50 [3]: > 100 µM (inactive) | GI50 [4]: 75 µM (inactive) | GI50 [5]: > 100 µM (inactive) | GI50 [6]: 86.7 µM (inactive) | GI50 [7]: > 100 µM (inactive) | GI50 [8]: > 100 µM (inactive) | GI50 [9]: > 100 µM (inactive) | GI50 [10]: > 100 µM (inactive) | GI50 [11]: > 100 µM (inactive) | GI50 [12]: > 100 µM (inactive) | GI50 [13]: > 100 µM (inactive) | GI50 [14]: 53.1 µM (inactive) | GI50 [15]: > 100 µM (inactive) | GI50 [16]: > 100 µM (inactive) | GI50 [17]: 63 µM (inactive) | GI50 [20]: > 100 µM (inactive) | GI50 [21]: 54 µM (inactive) | GI50 [22]: 44.8 µM (inactive) | GI50 [23]: > 100 µM (inactive) | GI50 [25]: > 100 µM (inactive) | GI50 [26]: 58.6 µM (inactive) | GI50 [27]: > 100 µM (inactive) | GI50 [29]: > 100 µM (inactive) | GI50 [31]: > 100 µM (inactive) | GI50 [32]: 66.4 µM (inactive) | GI50 [33]: > 100 µM (inactive) | GI50 [34]: 75 µM | GI50 [35]: > 100 µM (inactive) | GI50 [36]: > 100 µM (inactive) | GI50 [37]: > 100 µM (inactive) | GI50 [38]: 37.8 µM (inactive) | GI50 [39]: 43.7 µM (inactive) | GI50 [40]: 14 µM (inactive) | GI50 [41]: > 100 µM (inactive) | GI50 [42]: > 100 µM (inactive) | GI50 [57]: 29.4 µM (inactive) | GI50 [43]: > 100 µM (inactive) | GI50 [44]: 95.9 µM (inactive) | GI50 [45]: 51.9 µM (inactive) | GI50 [46]: 33.2 µM (inactive) | GI50 [47]: 45.4 µM (inactive) | GI50 [48]: > 100 µM (inactive) | GI50 [49]: 56.5 µM (inactive) | GI50 [50]: 65.6 µM (inactive) | GI50 [51]: > 100 µM (inactive) | GI50 [52]: > 100 µM (inactive) | GI50 [53]: > 100 µM (inactive) | GI50 [54]: > 100 µM (inactive) | GI50 [55]: > 100 µM (inactive) | GI50 [56]: > 100 µM (inactive) | GI50 [58]: > 100 µM (inactive)

CCCCCCCC1(N=[N+]=[N-])C(=O)c2ccccc2N(C)C1=O (centres undefined)
GI50 [1]: > 100 µM (inactive) | GI50 [2]: 49 µM (inactive) | GI50 [3]: 56.1 µM (inactive) | GI50 [4]: > 100 µM (inactive) | GI50 [5]: > 100 µM (inactive) | GI50 [6]: > 100 µM (inactive) | GI50 [7]: > 100 µM (inactive) | GI50 [8]: > 100 µM (inactive) | GI50 [9]: 88.5 µM (inactive) | GI50 [10]: > 100 µM (inactive) | GI50 [11]: 35.6 µM (inactive) | GI50 [12]: 57.8 µM (inactive) | GI50 [13]: 48 µM (inactive) | GI50 [14]: 75 µM (inactive) | GI50 [15]: > 100 µM (inactive) | GI50 [16]: > 100 µM (inactive) | GI50 [17]: > 100 µM (inactive) | GI50 [18]: > 100 µM (inactive) | GI50 [19]: > 100 µM (inactive) | GI50 [20]: 69.8 µM (inactive) | GI50 [21]: 97.1 µM (inactive) | GI50 [22]: 7.55 µM (inactive) | GI50 [23]: 69.8 µM (inactive) | GI50 [25]: > 100 µM (inactive) | GI50 [26]: 72.9 µM (inactive) | GI50 [27]: 89.9 µM (inactive) | GI50 [28]: 64.9 µM (inactive) | GI50 [29]: > 100 µM (inactive) | GI50 [30]: > 100 µM (inactive) | GI50 [31]: 87.3 µM (inactive) | GI50 [32]: > 100 µM (inactive) | GI50 [34]: > 100 µM | GI50 [35]: > 100 µM (inactive) | GI50 [36]: > 100 µM (inactive) | GI50 [37]: > 100 µM (inactive) | GI50 [38]: > 100 µM (inactive) | GI50 [39]: 68.9 µM (inactive) | GI50 [40]: > 100 µM (inactive) | GI50 [41]: 86.5 µM (inactive) | GI50 [42]: 93.8 µM (inactive) | GI50 [43]: 68.5 µM (inactive) | GI50 [44]: > 100 µM (inactive) | GI50 [45]: 61 µM (inactive) | GI50 [46]: > 100 µM (inactive) | GI50 [47]: > 100 µM (inactive) | GI50 [48]: > 100 µM (inactive) | GI50 [49]: > 100 µM (inactive) | GI50 [59]: > 100 µM (inactive) | GI50 [50]: > 100 µM (inactive) | GI50 [51]: 54.1 µM (inactive) | GI50 [53]: 40.1 µM (inactive) | GI50 [54]: > 100 µM (inactive) | GI50 [55]: > 100 µM (inactive) | GI50 [56]: > 100 µM (inactive) | GI50 [58]: 22.5 µM (inactive)
